# Structures can show the parent of a compound that is named as a salt.
# Experiments:
# Renin [1] = target: T1, Renin (Homo sapiens, UniProt P00797); assay: In-vitro renin inhibition assay (modified Cayman renin inhibitor screening assay, fluorescence); type: biochemical; parameters: purchased Cayman 10006270; conditions: 37° C., 30 mins; for inhibition at 0.1 µM: read-out: Renin inhibition (percent inhibition of renin activity) at 0.1 μM; for inhibition at 1 µM: read-out: Renin inhibition (percent inhibition of renin activity) at 1 μM
# T1 sequence (P00797 67-406): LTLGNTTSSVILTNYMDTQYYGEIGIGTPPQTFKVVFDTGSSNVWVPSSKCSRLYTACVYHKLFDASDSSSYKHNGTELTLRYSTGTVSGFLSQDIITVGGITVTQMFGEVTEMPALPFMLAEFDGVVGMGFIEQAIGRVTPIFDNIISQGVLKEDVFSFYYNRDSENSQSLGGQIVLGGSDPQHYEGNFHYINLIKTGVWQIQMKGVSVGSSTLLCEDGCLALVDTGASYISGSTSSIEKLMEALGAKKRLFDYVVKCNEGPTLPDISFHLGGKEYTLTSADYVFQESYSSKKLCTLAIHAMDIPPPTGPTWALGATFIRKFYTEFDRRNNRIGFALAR
# Protocol: In-Vitro Renin Inhibition Assay
# The enzymatic in vitro assay was performed in 96 well polypropylene plate (Nunc), using a modified Renin inhibitor screening assay protocol (Cayman, cat no: 10006270). The reaction system comprised assay buffer containing 50 mM Tris-HCL, pH=8.0 & 100 mM sodium chloride, human recombinant renin (1:20 diluted with fixed activity), synthetic renin substrates (9.5 μM) and different concentrations of renin inhibitors in DMSO in a total reaction system of 100 μl. The entire incubation mixture were incubated at 37° C. for 30 mins and the fluorescence was read in kinetic mode using excitation wavelengths of 335-345 nm and emission wavelengths of 485-510 nm. Enzyme inhibition was determined by percent inhibition of renin activity.
# Renin [2] = target: T1, Renin; assay: Renin inhibition in human plasma (IC50); type: biochemical; parameters: from tissue; host or cells: human plasma
# From the text: Following table represents measured IC50 values of the selected compounds for its Renin inhibition in human plasma.
Structure (SMILES),inhibition at 0.1 µM (Renin [1]; compound concentration 0.1 μM),inhibition at 1 µM (Renin [1]; compound concentration 1 μM),IC50 (Renin [2]),Renin inhibition (percent inhibition of renin activity) at 0.1 μM (Renin [1]; compound concentration 0.1 μM),Renin inhibition (percent inhibition of renin activity) at 1 μM (Renin [1]; compound concentration 1 μM)
"Cc1cc(Cl)c(OCCOc2ccc(CC(CN)C(=O)N3CCCCC3)cc2)c(Cl)c1 (stereo not drawn) [Example 12, 3-Amino-2-{4-[2-(2,6-dichloro-4-methyl-phenoxy)-ethoxy]-benzyl}-1-piperidin-1-yl-propan-1-one]",77%,90.7%,0.0702 µM,,
"COCC1CCCN(C(=O)C(CN)Cc2ccc(OCCOc3c(Cl)cc(C)cc3Cl)cc2)C1 (stereo not drawn) [Example 26, 2-Aminomethyl-3-{4-[2-(2,6-dichloro-4-methyl-phenoxy)-ethoxy]-phenyl}-1-(3-methoxymethyl-piperidin-1-yl)-propan-1-one hydrochloride]",92.8%,93.9%,0.0278 µM,,
"COCCCOc1ccc2c(c1)CCCN2C(=O)C(CN)Cc1ccc(OCCOc2c(Cl)cc(C)cc2Cl)cc1 (stereo not drawn) [Example 24, 3-Amino-2-{4-[2-(2,6-dichloro-4-methyl-phenoxy)-ethoxy]-benzyl}-1-[6-(3-methoxy-propoxy)-3,4-dihydro-2H-quinolin-1-yl]-propan-1-one]",90.7%,93.2%,0.0254 µM,,
"Cc1cc(Cl)c(OCCOc2ccc(CC(CN)C(=O)N3CCCc4cccc(F)c43)cc2)c(Cl)c1 (stereo not drawn) [Example 11, 3-Amino-2-{4-[2-(2,6-dichloro-4-methyl-phenoxy)-ethoxy]-benzyl}-1-(8-fluoro-3,4-dihydro-2H-quinolin-1-yl)-propan-1-one]",,68.5%,,,
"COc1cc(CC(CN)C(=O)N2CCCc3ccccc32)ccc1OCCOc1c(Cl)cc(C)cc1Cl (stereo not drawn) [Example 48, 3-Amino-2-{4-[2-(2,6-dichloro-4-methyl-phenoxy)-ethoxy]-3-methoxy-benzyl}-1-(3,4-dihydro-2H-quinolin-1-yl)-propan-1-one hydrochloride]",,58.5%,,,
"Cc1cc(Cl)c(OCCOc2ccc(CC(CN)C(=O)N3CCCC3)cc2)c(Cl)c1 (stereo not drawn) [Example 23, 3-Amino-2-{4-[2-(2,6-dichloro-4-methyl-phenoxy)-ethoxy]-benzyl}-1-pyrrolidin-1-yl-propan-1-one]",59.5%,81.1%,,,
"COc1ccc2c(c1)CCCN2C(=O)C(CN)Cc1ccc(OCCOc2c(Cl)cc(C)cc2Cl)cc1 (stereo not drawn) [Example 13, 3-Amino-2-{4-[2-(2,6-dichloro-4-methyl-phenoxy)-ethoxy]-benzyl}-1-(6-methoxy-3,4-dihydro-2H-quinolin-1-yl)-propan-1-one]",32.1%,96.5%,,,
"Cc1cc(Cl)c(OCCOc2ccc(CC(CN)C(=O)N3CCCc4ccccc43)cn2)c(Cl)c1 (stereo not drawn) [Example 43, 2-Aminomethyl-3-{6-[2-(2,6-dichloro-4-methyl-phenoxy)-ethoxy]-pyridin-3-yl}-1-(3,4-dihydro-2H-quinolin-1-yl)-propan-1-one]",,64.2%,,,
"Cc1cc(Cl)c(OCCOc2ccc(CC(CN)C(=O)N3CCCc4cc(OCC(F)(F)F)ccc43)cc2)c(Cl)c1 (stereo not drawn) [Example 28, 3-Amino-2-{4-[2-(2,6-dichloro-4-methyl-phenoxy)-ethoxy]-benzyl}-1-[6-(2,2,2-trifluoro-ethoxy)-3,4-dihydro-2H-quinolin-1-yl]-propan-1-one hydrochloride]",73.8%,,,,
"COC1CCCN(C(=O)C(CN)Cc2ccc(OCCOc3c(Cl)cc(C)cc3Cl)cc2)C1 (stereo not drawn) [Example 30, 2-Aminomethyl-3-{4-[2-(2,6-dichloro-4-methyl-phenoxy)-ethoxy]-phenyl}-1-(3-methoxy-piperidin-1-yl)-propan-1-one hydrochloride]",92.8%,92.9%,,,
"Cc1cc(Cl)c(OCCOc2ccc(CC(CN)C(=O)N3CCCc4ccc(C)c(C)c43)cc2)c(Cl)c1 (stereo not drawn) [Example 9, 3-Amino-2-{4-[2-(2,6-dichloro-4-methyl-phenoxy)-ethoxy]-benzyl}-1-(7,8-dimethyl-3,4-dihydro-2H-quinolin-1-yl)-propan-1-one]",80.5%,98.1%,,,
"Cc1cc(Cl)c(OCCOc2ccc(CC(CN)C(=O)N3CCOCC3)cc2)c(Cl)c1 (stereo not drawn) [Example 25, 3-Amino-2-{4-[2-(2,6-dichloro-4-methyl-phenoxy)-ethoxy]-benzyl}-1-morpholin-4-yl-propan-1-one hydrochloride]",45.1%,76.4%,,,
"Cc1cc(Cl)c(OCCOc2ccc(CC(CN)C(=O)N3CCCc4cc(C(F)(F)F)ccc43)cn2)c(Cl)c1 (stereo not drawn) [Example 41, 3-Amino-2-{6-[2-(2,6-dichloro-4-methyl-phenoxy)-ethoxy]-pyridin-3-ylmethyl}-1-(6-trifluoromethyl-3,4-dihydro-2H-quinolin-1-yl)-propan-1-one]",80.1%,98.6%,,,
"COc1ccccc1COCCCOc1ccc(CC(CN)C(=O)N2CCCc3cc(C(F)(F)F)ccc32)cc1 (stereo not drawn) [Example 47, 3-Amino-2-{4-[3-(2-methoxy-benzyloxy)-propoxy]-benzyl}-1-(6-trifluoromethyl-3,4-dihydro-2H-quinolin-1-yl)-propan-1-one]",43.1%,,,,

# The remaining lines, values ahead:
inhibition at 0.1 µM (Renin [1]; compound concentration 0.1 μM),inhibition at 1 µM (Renin [1]; compound concentration 1 μM),IC50 (Renin [2]),Renin inhibition (percent inhibition of renin activity) at 0.1 μM (Renin [1]; compound concentration 0.1 μM),Renin inhibition (percent inhibition of renin activity) at 1 μM (Renin [1]; compound concentration 1 μM),Structure (SMILES)
100%,,0.000829 µM,,,"NCC(Cc1ccc(OCCOc2c(Cl)cccc2Cl)cc1)C(=O)N1CCCc2cc(OC(F)(F)F)ccc21 (stereo not drawn) [Example 32, 3-Amino-2-{4-[2-(2,6-dichloro-phenoxy)-ethoxy]-benzyl}-1-(6-trifluoromethoxy-3,4-dihydro-2H-quinolin-1-yl)-propan-1-one hydrochloride]"
,,0.00785 µM,80.00,88.0,"Cc1cc(Cl)c(OCCOc2ccc(CC(CN)C(=O)N3CCCc4cc(C(F)(F)F)ccc43)cc2)c(Cl)c1.Cl (stereo not drawn) [Example 15A, 3-Amino-2-{4-[2-(2,6-dichloro-4-methyl-phenoxy)-ethoxy]-benzyl}-1-(6-trifluoromethyl-3,4-dihydro-2H -quinolin-1-yl)-propan-1-one hydrochloride]"
100%,99.2%,0.000921 µM,,,"Cc1cc(Cl)c(OCCOc2ccc(CC(CN)C(=O)N3CCCc4cc(OC(F)(F)F)ccc43)cc2)c(Cl)c1 (stereo not drawn) [Example 27, 3-Amino-2-{4-[2-(2,6-dichloro-4-methyl-phenoxy)-ethoxy]-benzyl}-1-(6-trifluoromethoxy-3,4-dihydro-2H-quinolin-1-yl)-propan-1-one hydrochloride]"
45%,,,,,"NCC(Cc1ccc(OCCOc2ccc(F)cc2F)cc1)C(=O)N1CCCc2cc(C(F)(F)F)ccc21 (stereo not drawn) [Example 36, 3-Amino-2-{4-[2-(2,4-difluoro-phenoxy)-ethoxy]-benzyl}-1-(6-trifluoromethyl-3,4-dihydro-2H-quinolin-1-yl)-propan-1-one hydrochloride]"
35.4%,,,,,"NCC(Cc1ccc(OCCOc2ccc(Cl)cc2Cl)cc1)C(=O)N1CCCc2cc(C(F)(F)F)ccc21 (stereo not drawn) [Example 38, 3-Amino-2-{4-[2-(2,4-dichloro-phenoxy)-ethoxy]-benzyl}-1-(6-trifluoromethyl-3,4-dihydro-2H-quinolin-1-yl)-propan-1-one hydrochloride chloride]"
94.1%,102%,0.0287 µM,,,"NCC(Cc1ccc(OCCOc2c(Cl)cccc2Cl)cc1)C(=O)N1CCCc2cc(C(F)(F)F)ccc21 (stereo not drawn) [Example 31, 3-Amino-2-{4-[2-(2,6-dichloro-phenoxy)-ethoxy]-benzyl}-1-(6-trifluoromethyl-3,4-dihydro-2H-quinolin-1-yl)-propan-1-one hydrochloride]"
